This note sets out measurements from patent US8940913B2, “Herbicides” (Syngenta Crop Protection, LLC, priority 2007, dated 2015).

Structures are written as SMILES.

Common to all, as to type: in vivo
For assay [1], the system named is Alopecurus myosuroides (ALOMY). The assay can be described thus: Pre-emergence herbicidal activity, glasshouse pot test. The conditions noted are these: 480 h, rate 250 g/ha, evaluated 20 days later, 100=total damage to plant, 0=no damage to plant. The gist of the method:
(§1)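 Compound formulated in acetone and an Emulsogen EL/NMP/glycol ether/X-77 mixture, diluted in water and sprayed onto pot-grown plants, pre-emergence at 1 day or post-emergence at 10 days after sowing. Evaluation after 20 or 15 days respectively, 0 = no damage, 100 = total damage.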

The test system of assay [2] is Avena fatua (AVEFA). Described as above. The conditions noted are these: 480 h, rate 250 g/ha, evaluated 20 days later, 100=total damage to plant, 0=no damage to plant. The gist of the method:
as §1

Assay [3] deals with Digitaria sanguinalis (DIGSA). The description is as above. The note with it: 480 h, rate 250 g/ha, evaluated 20 days later, 100=total damage to plant, 0=no damage to plant. The method in brief:
as §1

Assay [4] relates to Echinochloa crus-galli (ECHCG). The assay is described as above. The note with it: 480 h, rate 250 g/ha, evaluated 20 days later, 100=total damage to plant, 0=no damage to plant. The method in brief:
as §1

Assay [5] deals with Lolium perenne (LOLPE). The assay is described as above. The conditions noted are these: 480 h, rate 250 g/ha, evaluated 20 days later, 100=total damage to plant, 0=no damage to plant. The gist of the method: as §1
The subject of assay [6] is Setaria faberi (SETFA). The description is as above. The conditions noted are these: 480 h, rate 250 g/ha, evaluated 20 days later, 100=total damage to plant, 0=no damage to plant. The gist of the method: as §1
In assay [7] the test system is Alopecurus myosuroides (ALOMY). The assay can be described thus: Post-emergence herbicidal activity, glasshouse pot test. The conditions noted are these: 360 h, rate 125 g/ha, evaluated 15 days later, 100=total damage to plant, 0=no damage to plant. The method in brief: as §1
For assay [8], the system named is Avena fatua (AVEFA). The assay is described as above. The note with it: 360 h, rate 125 g/ha, evaluated 15 days later, 100=total damage to plant, 0=no damage to plant. The method in brief:
as §1

Assay [9] relates to Digitaria sanguinalis (DIGSA). The description is as above. The conditions noted are these: 360 h, rate 125 g/ha, evaluated 15 days later, 100=total damage to plant, 0=no damage to plant. The gist of the method: as §1
Assay [10] deals with Echinochloa crus-galli (ECHCG). The description is as above. The conditions noted are these: 360 h, rate 125 g/ha, evaluated 15 days later, 100=total damage to plant, 0=no damage to plant. The gist of the method:
as §1

Assay [11] has as its system Lolium perenne (LOLPE). Described as above. The note with it: 360 h, rate 125 g/ha, evaluated 15 days later, 100=total damage to plant, 0=no damage to plant. The method in brief:
as §1

Assay [12] relates to Setaria faberi (SETFA). The description is as above. The conditions noted are these: 360 h, rate 125 g/ha, evaluated 15 days later, 100=total damage to plant, 0=no damage to plant. The method in brief: as §1

As a reminder, the pest or weed control is the degree to which the test organism was suppressed or injured, in per cent. On to `CCc1ccc(-c2ccc(Cl)cc2C)cc1C1=C(O)[C@H]2[C@@H](C1=O)[C@]1(C)CC[C@@]2(C)O1` [Compound T28], for which the pest or weed control at 250 g/ha in [1] was 0%; in the assay on Avena fatua (AVEFA) [2], 30%; in assay [3], 30%; in assay [4] it was 0%; with Lolium perenne (LOLPE) [5], 40%; in the assay on Setaria faberi (SETFA) [6], 20%. Further, the pest or weed control at 125 g/ha in assay [7] was 90%; in the assay on Avena fatua (AVEFA) [8] it was 90%; in assay [9], 70%; in assay [10], 100%; with Lolium perenne (LOLPE) [11], 50%; in the assay with Setaria faberi (SETFA) [12], 100%.

Turning to `CCc1ccc(-c2ccc(Cl)c(Cl)c2)cc1C1=C(O)[C@H]2[C@@H](C1=O)[C@]1(C)CC[C@@]2(C)O1` [Compound T29], the pest or weed control at 250 g/ha in [1] came to 10%; in the assay with Avena fatua (AVEFA) [2] it was 0%; in [3], 40%; in assay [4], 0%; in the assay on Lolium perenne (LOLPE) [5] it was 30%; in the assay with Setaria faberi (SETFA) [6], 50%. Besides, the pest or weed control at 125 g/ha is 90% in assay [7]; 90% in the assay on Avena fatua (AVEFA) [8]; 100% in [9]; 100% in [10]; 50% in the assay on Lolium perenne (LOLPE) [11]; 100% in the assay on Setaria faberi (SETFA) [12].

Take `CCc1ccc(-c2ccc(Cl)c(C(F)(F)F)c2)cc1C1=C(O)[C@H]2[C@@H](C1=O)[C@]1(C)CC[C@@]2(C)O1` [Compound T31]: the pest or weed control at 250 g/ha in assay [1] came to 0%; in the assay on Avena fatua (AVEFA) [2] it was 50%; in [3] it was 30%; in assay [4] it was 60%; with Lolium perenne (LOLPE) [5], 20%; in the assay on Setaria faberi (SETFA) [6] it was 10%. Moreover, the pest or weed control at 125 g/ha in [7] amounted to 90%; in the assay on Avena fatua (AVEFA) [8], 80%; in assay [9] it was 100%; in assay [10] it was 100%; with Lolium perenne (LOLPE) [11] it was 40%; with Setaria faberi (SETFA) [12], 100%.

As to `CCc1ccc(-c2ccc(Cl)s2)cc1C1=C(O)[C@H]2[C@@H](C1=O)[C@]1(C)CC[C@@]2(C)O1` [Compound T32], the pest or weed control at 250 g/ha is 30% in assay [1]; 0% with Avena fatua (AVEFA) [2]; 30% in assay [3]; 70% in assay [4]; 60% with Lolium perenne (LOLPE) [5]; 100% in the assay on Setaria faberi (SETFA) [6]. Further, the pest or weed control at 125 g/ha in [7] was found to be 70%; in the assay on Avena fatua (AVEFA) [8], 70%; in assay [9] it was 70%; in assay [10], 100%; in the assay on Lolium perenne (LOLPE) [11], 60%; with Setaria faberi (SETFA) [12], 70%.

As to `CCc1ccc(-c2ccc(Cl)c(F)c2)cc1C1=C(O)[C@H]2[C@@H](C1=O)[C@]1(C)CC[C@@]2(C)O1` [Compound T33], the pest or weed control at 250 g/ha stood at 20% in assay [1]; 0% with Avena fatua (AVEFA) [2]; 70% in assay [3]; 70% in assay [4]; 50% with Lolium perenne (LOLPE) [5]; 80% with Setaria faberi (SETFA) [6]. The pest or weed control at 125 g/ha in assay [7] is 100%; in the assay with Avena fatua (AVEFA) [8], 100%; in assay [9] it was 100%; in assay [10] it was 100%; with Lolium perenne (LOLPE) [11], 80%; with Setaria faberi (SETFA) [12], 100%.

With `CCc1ccc(-c2ccc(Cl)c(F)c2Cl)cc1C1=C(O)[C@H]2[C@@H](C1=O)[C@]1(C)CC[C@@]2(C)O1` [Compound T37], the pest or weed control at 250 g/ha in [1] was 20%; in the assay with Avena fatua (AVEFA) [2] it was 30%; in [3] it was 100%; in assay [4], 80%; in the assay with Lolium perenne (LOLPE) [5], 50%; in the assay with Setaria faberi (SETFA) [6], 80%. Also, the pest or weed control at 125 g/ha in assay [7] came to 90%; in the assay with Avena fatua (AVEFA) [8] it was 100%; in assay [9], 100%; in assay [10] it was 100%; in the assay with Lolium perenne (LOLPE) [11], 70%; in the assay with Setaria faberi (SETFA) [12] it was 100%.

Consider `CCc1ccc(-c2ccc(Cl)c(F)c2F)cc1C1=C(O)[C@H]2[C@@H](C1=O)[C@]1(C)CC[C@@]2(C)O1` [Compound T38], for which the pest or weed control at 250 g/ha in assay [1] worked out at 0%; with Avena fatua (AVEFA) [2], 30%; in assay [3], 30%; in assay [4], 100%; with Lolium perenne (LOLPE) [5], 50%; in the assay on Setaria faberi (SETFA) [6], 90%. Further, the pest or weed control at 125 g/ha in assay [7] worked out at 100%; with Avena fatua (AVEFA) [8] it was 90%; in assay [9], 100%; in [10], 100%; in the assay with Lolium perenne (LOLPE) [11], 50%; with Setaria faberi (SETFA) [12], 80%.

Regarding `CCc1ccc(-c2ccc(Cl)c(Cl)c2F)cc1C1=C(O)[C@H]2[C@@H](C1=O)[C@]1(C)CC[C@@]2(C)O1` [Compound T40], the pest or weed control at 250 g/ha in assay [1] worked out at 10%; in the assay with Avena fatua (AVEFA) [2], 10%; in assay [3] it was 100%; in assay [4], 50%; with Lolium perenne (LOLPE) [5], 0%; in the assay on Setaria faberi (SETFA) [6], 70%. Further, the pest or weed control at 125 g/ha in assay [7] worked out at 60%; in the assay with Avena fatua (AVEFA) [8], 40%; in [9], 100%; in assay [10] it was 100%; in the assay on Lolium perenne (LOLPE) [11] it was 30%; in the assay on Setaria faberi (SETFA) [12], 80%.
